The values below come from US20220389019A1, “TrkB POSITIVE ALLOSTERIC MODULATORS” (Université de Strasbourg, priority 2019, published 2022).

The subject of the experiment is TrkB. Kind of experiment: TrkB phosphorylation assay: potentiation of BDNF-induced TrkB phosphorylation in cortical neurons. The class given is cell-based. The conditions noted are these: potentation at a PAM concentration of 10 nM of 0.4 nM BDNF-induced TrkB phosphorylation in cortical neurons. The source says: It is meant by “positive allosteric modulator” (PAM), also known as allosteric enhancer or potentiator, a compound that induces an amplification of the effect of receptor's response to the primary ligand without directly activating the receptor. Within this invention, PAM TrkB activity is related to the potentation of BDNF effects on the functional activity of the TrkB receptor, measured in vitro or in vivo by mean of a specific TrkB receptor phosphorylation assay.
In Vitro Activity of LIT-TB Derivatives in a TrkB Phosphorylation Assay
Regarding `CN1CCN(c2ccc3nnc(CCC(=O)NC4CCN(CC5CCCCC5)CC4)n3n2)CC1` [LIT-TB031, N-[1-(cyclohexylmethyl)piperidin-4-yl]-3-[6-(4-methylpiperazin-1-yl)-[1,2,4]triazolo[4,3-b]pyridazin-3-yl]propanamide], the “PAM TrkB activity” value was “+++ (+++: >35%)”.

`O=C(CCc1nnc2ccc(N3CCC(N4CCCCC4)CC3)nn12)NC1CCN(Cc2ccccc2)CC1` [LIT-TB003, 3-(6-([1,4′-bipiperidin]-1′-yl)-[1,2,4]triazolo[4,3-b]pyridazin-3-yl)-N-(1-benzylpiperidin-4-yl) propanamide]: the “PAM TrkB activity” value is on record as “++ (++: 20-35%)”.

As to `CN1CCN(c2ccc3nnc(CCC(=O)NC4CCN(Cc5ccccc5Cl)CC4)n3n2)CC1` [LIT-TB019, N-{1-[(2-chlorophenyl)methyl]piperidin-4-yl}-3-[6-(4-methylpiperazin-1-yl)-[1,2,4]triazolo[4,3-b]pyridazin-3-yl]propanamide], the “PAM TrkB activity” value is given as “+++ (+++: >35%)”.

`Cc1cc(F)ccc1CN1CCC(NC(=O)CCc2nnc3ccc(N4CCN(C)CC4)nn23)CC1` [LIT-TB044, N-{1-[(4-fluoro-2-methylphenyl)methyl]piperidin-4-yl}-3-[6-(4-methylpiperazin-1-yl)-[1,2,4]triazolo[4,3-b]pyridazin-3-yl]propanamide]: the “PAM TrkB activity” value is recorded as “++ (++: 20-35%)”.

Regarding `CC(c1ccccc1)N1CCC(NC(=O)CCc2nnc3ccc(N4CCN(C)CC4)nn23)CC1` (centres unmarked) [LIT-TB023, 3-[6-(4-methylpiperazin-1-yl)-[1,2,4]triazolo[4,3-b]pyridazin-3-yl]-N-[1-(1-phenylethyl)piperidin-4-yl]propanamide], the “PAM TrkB activity” value is given as “+ (+: <20%)”.

In the case of `CN1CCN(c2ccc3nnc(CCC(=O)NC4CCN(Cc5ccc(Cl)c(Cl)c5)CC4)n3n2)CC1` [LIT-TB026, N-{1-[(3,4-dichlorophenyl)methyl]piperidin-4-yl}-3-[6-(4-methylpiperazin-1-yl)-[1,2,4]triazolo[4,3-b]pyridazin-3-yl]propanamide], the “PAM TrkB activity” value was “+ (+: <20%)”.

Consider `CN1CCN(c2ccc3nnc(CCC(=O)NC4CCN(Cc5ccc(F)cc5)CC4)n3n2)CC1` [LIT-TB020, N-{1-[(4-fluorophenyl)methyl]piperidin-4-yl}-3-[6-(4-methylpiperazin-1-yl)-[1,2,4]triazolo[4,3-b]pyridazin-3-yl]propanamide], for which the “PAM TrkB activity” value is on record as “+++ (+++: >35%)”.

Turning to `COc1ccc(CN2CC[C@H](NC(=O)CCc3nnc4ccc(N5CCN(C)CC5)nn34)[C@@H](F)C2)cc1` [LIT-TB052, N-[(3S,4S)-3-fluoro-1-[(4-methoxyphenyl)methyl]piperidin-4-yl]-3-[6-(4-methylpiperazin-1-yl)-[1,2,4]triazolo[4,3-b]pyridazin-3-yl]propanamide], the “PAM TrkB activity” value is recorded as “+++ (+++: >35%)”.

With `O=C(CCc1nnc2ccc(N3CCN(c4ncccn4)CC3)nn12)NC1CCN(Cc2ccccc2)CC1` [LIT-TB004, N-(1-benzylpiperidin-4-yl)-3-(6-(4-(pyrimidin-2-yl)piperazin-1-yl)-[1,2,4]triazolo[4,3-b]pyridazin-3-yl)propanamide], the “PAM TrkB activity” value is recorded as “+ (+: <20%)”.

For the molecule `COc1ccc(CN2CCC(NC(=O)CCc3nnc4ccc(N5CCN(C)CC5)nn34)CC2)cc1` [LIT-TB017, N-{1-[(4-methoxyphenyl)methyl]piperidin-4-yl}-3-[6-(4-methylpiperazin-1-yl)-[1,2,4]triazolo [4,3-b]pyridazin-3-yl]propanamide], the “PAM TrkB activity” value is on record as “+++ (+++: >35%)”.

Take `O=C(CCc1nnc2ccc(N3CCCCC3)nn12)NC1CCN(Cc2ccccc2)CC1` [LIT-TB002, N-(1-benzylpiperidin-4-yl)-3-[6-(piperidin-1-yl)-[1,2,4]triazolo[4,3-b]pyridazin-3-yl]propanamide]: the “PAM TrkB activity” value was “++ (++: 20-35%)”.

Regarding `CN1CCN(c2ccc3nnc(CCC(=O)NC4CCN(Cc5ccncc5)CC4)n3n2)CC1` [LIT-TB025, 3-[6-(4-methylpiperazin-1-yl)-[1,2,4]triazolo[4,3-b]pyridazin-3-yl]-N-[1-(pyridin-4-ylmethyl)piperidin-4-yl]propanamide], the “PAM TrkB activity” value is reported as “+ (+: <20%)”.

For `CN1CCN(c2ccc3ncc(CCC(=O)NC4CCN(Cc5ccccc5)CC4)n3c2)CC1` [LIT-TB013, N-(1-benzylpiperidin-4-yl)-3-(6-(4-methylpiperazin-1-yl)imidazo[1,2-a]pyridin-3-yl)propanamide], the “PAM TrkB activity” value is “+++ (+++: >35%)”.

For the molecule `CN1CCN(c2ccc3nnc(CCC(=O)NC4CCN(c5ccccc5)CC4)n3n2)CC1` [LIT-TB035, 3-[6-(4-methylpiperazin-1-yl)-[1,2,4]triazolo[4,3-b]pyridazin-3-yl]-N-(1-phenylpiperidin-4-yl)propanamide], the “PAM TrkB activity” value is recorded as “++ (++: 20-35%)”.

With `CN1CCN(c2ccc3nnc(CCC(=O)NC4CCNCC4)n3n2)CC1` [LIT-TB021, 3-(6-(4-methylpiperazin-1-yl)-[1,2,4]triazolo[4,3-b]pyridazin-3-yl)-N-(piperidin-4-yl)propanamide], the “PAM TrkB activity” value is “+ (+: <20%)”.

In the case of `O=C(CCc1nnc2ccc(N3CCN(Cc4ccccc4)CC3)nn12)NC1CCN(Cc2ccccc2)CC1` [LIT-TB005], the “PAM TrkB activity” value is recorded as “+++ (+++: >35%)”.

Regarding `CN1CCN(c2ccc3nnc(CCCNC4CCN(Cc5ccccc5)CC4)n3n2)CC1` [LIT-TB015, 1-benzyl-N-(3-(6-(4-methylpiperazin-1-yl)-[1,2,4]triazolo[4,3-b]pyridazin-3-yl)propyl)piperidin-4-amine], the “PAM TrkB activity” value is listed as “+++ (+++: >35%)”.

Regarding `COc1ccc(CN2CC[C@@H](NC(=O)CCc3nnc4ccc(N5CCN(C)CC5)nn34)[C@H](F)C2)cc1` [LIT-TB053, N-[(3R,4R)-3-fluoro-1-[(4-methoxyphenyl)methyl]piperidin-4-yl]-3-[6-(4-methylpiperazin-1-yl)-[1,2,4]triazolo[4,3-b]pyridazin-3-yl]propanamide], the “PAM TrkB activity” value is “++ (++: 20-35%)”.

Take `CN1CCN(c2ccc3nnc(CCC(=O)NC4CCN(Cc5ccccc5)C(=O)C4)n3n2)CC1` (centres unmarked) [LIT-TB033, N-(1-benzyl-2-oxopiperidin-4-yl)-3-[6-(4-methylpiperazin-1-yl)-[1,2,4]triazolo[4,3-b]pyridazin-3-yl]propanamide]: the “PAM TrkB activity” value was “+ (+: <20%)”.

On to `Cc1[nH]cnc1CN1CCC(NC(=O)CCc2nnc3ccc(N4CCN(C)CC4)nn23)CC1` [LIT-TB032, N-{1-[(5-methyl-1H-imidazol-4-yl)methyl]piperidin-4-yl}-3-[6-(4-methylpiperazin-1-yl)-[1,2,4]triazolo [4,3-b]pyridazin-3-yl]propanamide], for which the “PAM TrkB activity” value is on record as “+++ (+++: >35%)”.

As to `CN1CCN(c2ccc3nnc(CCC(=O)NC4CCN(C(=O)c5ccccc5)CC4)n3n2)CC1.Cl` [LIT-TB027, N-(1-benzoylpiperidin-4-yl)-3-[6-(4-methylpiperazin-1-yl)-[1,2,4]triazolo[4,3-b]pyridazin-3-yl]propanamide hydrochloride], the “PAM TrkB activity” value is listed as “+ (+: <20%)”.

For `CN1CCN(c2ccc3nnc(CCC(=O)NC4CCN(Cc5ccccc5F)CC4)n3n2)CC1` [LIT-TB022, N-{1-[(2-fluorophenyl)methyl]piperidin-4-yl}-3-[6-(4-methylpiperazin-1-yl)-[1,2,4]triazolo[4,3-b]pyridazin-3-yl]propanamide], the “PAM TrkB activity” value was “+++ (+++: >35%)”.

As for `CN1CCN(c2ccc3nnc(CCC(=O)NC4CCN(Cc5cccc(Cl)c5)CC4)n3n2)CC1` [LIT-TB018, N-{1-[(3-chlorophenyl)methyl]piperidin-4-yl}-3-[6-(4-methylpiperazin-1-yl)-[1,2,4]triazolo[4,3-b]pyridazin-3-yl]propanamide], the “PAM TrkB activity” value is “+++ (+++: >35%)”.

Take `CN1CCN(c2ccc3nnc(CCC(=O)NC4CCN(Cc5ccc(F)cc5F)CC4)n3n2)CC1` [LIT-TB040, N-{1-[(2,4-difluorophenyl)methyl]piperidin-4-yl}-3-[6-(4-methylpiperazin-1-yl)-[1,2,4]triazolo[4,3-b]pyridazin-3-yl]propanamide]: the “PAM TrkB activity” value is on record as “++ (++: 20-35%)”.

In the case of `CN1CCN(c2ccc3nnc(CCC(=O)NC4CCC(Cc5ccccc5)CC4)n3n2)CC1` (centres unmarked) [LIT-TB034, N-(4-benzylcyclohexyl)-3-[6-(4-methylpiperazin-1-yl)-[1,2,4]triazolo[4,3-b]pyridazin-3-yl]propanamide], the “PAM TrkB activity” value is on record as “+ (+: <20%)”.

Take `CN1CCN(c2ccc3nnc(CCC(=O)N[C@H]4CCN(Cc5ccccc5)C[C@@H]4F)n3n2)CC1` [LIT-TB048, N-[(3S,4S)-1-benzyl-3-fluoropiperidin-4-yl]-3-[6-(4-methylpiperazin-1-yl)-[1,2,4]triazolo[4,3-b]pyridazin-3-yl]propanamide]: the “PAM TrkB activity” value was “+++ (+++: >35%)”.

Turning to `CN1CCN(c2ccc3nnc(CCC(=O)NC4CCN(Cc5ccc(Cl)cc5)CC4)n3n2)CC1` [LIT-TB028, N-{1-[(4-chlorophenyl)methyl]piperidin-4-yl}-3-[6-(4-methylpiperazin-1-yl)-[1,2,4]triazolo[4,3-b]pyridazin-3-yl]propanamide], the “PAM TrkB activity” value is given as “+ (+: <20%)”.

`COc1ccc(CN2CCC(NC(=O)CCc3nnc4ccc(N5CCN(C)CC5)nn34)CC2)c(F)c1.Cl.Cl` [LIT-TB046, N-{1-[(2-fluoro-4-methoxyphenyl)methyl]piperidin-4-yl}-3-[6-(4-methylpiperazin-1-yl)-[1,2,4]triazolo[4,3-b]pyridazin-3-yl]propanamide dihydrochloride]: the “PAM TrkB activity” value is given as “+ (+: <20%)”.

Take `CN1CCN(c2ccc3nnc(CCC(=O)N[C@@H]4CCN(Cc5ccccc5)C[C@H]4F)n3n2)CC1` [LIT-TB049, N-[(3R,4R)-1-benzyl-3-fluoropiperidin-4-yl]-3-[6-(4-methylpiperazin-1-yl)-[1,2,4]triazolo[4,3-b]pyridazin-3-yl]propanamide]: the “PAM TrkB activity” value was “+++ (+++: >35%)”.
